Laboratory results published in ChEMBL document CHEMBL3045007, “Aryloxyacetic esters structurally related to -Asarone as potential antifungal agents” (2010).
Converted amounts (≈) assume the structure as drawn. The source made the active and inactive calls. No cut-off for these calls is given here.

Key:
[1] = test system: Cryptococcus gattii species complex; assay: Antifungal activity against Cryptococcus gattii after 48 hr by broth microdilution method; assay type: functional, Cryptococcus bacillisporus; details: for MIC50: Cryptococcus gattii species complex, 48 h
[2] = test system: Cryptococcus deneoformans; assay: Antifungal activity against Cryptococcus neoformans var. neoformans after 48 hr by broth microdilution method; assay type: functional; details: for MIC50: Cryptococcus deneoformans, 48 h

SMILES | MFC>99 [1] [mg/L] | MIC50 [1] [mg/L] | MFC>99 [2] [mg/L] | MIC50 [2] [mg/L] | Activity ([1]; Cryptococcus bacillisporus) | Activity [2]
CCCCCOC(=O)COc1ccccc1 [N-AMYL PHENOXYACETATE] | 2 (≈ 9 µM) | 2 (≈ 9 µM) | 64 (≈ 288 µM) | 16 (≈ 72 µM) |  | 
CC(=O)N1CCN(c2ccc(OCC3COC(Cn4ccnc4)(c4ccc(Cl)cc4Cl)O3)cc2)CC1 (stereo not given) [KETOCONAZOLE] |  | 0.06 (≈ 0.113 µM) |  | 0.12 (≈ 0.226 µM) |  | 
CCCOC(=O)COc1ccc(C)cc1OC |  | 0.25 (≈ 1.05 µM) |  | 2 (≈ 8.39 µM) | Active | Active
CCCCCOC(=O)COc1ccccc1OC |  | 64 (≈ 254 µM) | >64 | 16 (≈ 63.4 µM) |  | 
OC(Cn1cncn1)(Cn1cncn1)c1ccc(F)cc1F [FLUCONAZOLE] |  | 4 (≈ 13.1 µM) |  | 4 (≈ 13.1 µM) |  | 
CCCOC(=O)COc1cccc(OC)c1 |  | 64 (≈ 285 µM) | >64 | 0.5 (≈ 2.23 µM) |  | 
CC[C@H](C)C[C@H](C)CCCCCCCCC(=O)N[C@H]1C[C@@H](O)[C@@H](NCCN)NC(=O)[C@@H]2[C@@H](O)CCN2C(=O)[C@H]([C@H](O)CCN)NC(=O)[C@H]([C@H](O)[C@@H](O)c2ccc(O)cc2)NC(=O)[C@@H]2C[C@@H](O)CN2C(=O)[C@H]([C@@H](C)O)NC1=O [CASPOFUNGIN] |  | 16 (≈ 14.6 µM) |  | 8 (≈ 7.32 µM) |  | 
CCCCCOC(=O)COc1ccc(C)cc1OC | 0.5 (≈ 1.88 µM) | 0.5 (≈ 1.88 µM) |  | 32 (≈ 120 µM) |  | 
COc1cc(C)ccc1OCC(=O)Oc1ccc(Cl)cc1 | 0.5 (≈ 1.63 µM) | 0.5 (≈ 1.63 µM) | 0.25 (≈ 0.815 µM) | 0.25 (≈ 0.815 µM) |  | 
CCC(C)n1ncn(-c2ccc(N3CCN(c4ccc(OCC5COC(Cn6cncn6)(c6ccc(Cl)cc6Cl)O5)cc4)CC3)cc2)c1=O (stereo not given) [ITRACONAZOLE] |  | 0.03 (≈ 0.0425 µM) |  | 0.03 (≈ 0.0425 µM) |  | 
COC(=O)COc1ccccc1OC |  | 128 (≈ 652 µM) | >64 | 0.5 (≈ 2.55 µM) |  | 
C[C@@H]1[C@H](O)[C@@H](C)/C=C/C=C/C=C/C=C/C=C/C=C/C=C/[C@H](O[C@@H]2O[C@H](C)[C@@H](O)[C@H](N)[C@@H]2O)C[C@@H]2O[C@](O)(C[C@@H](O)C[C@@H](O)[C@H](O)CC[C@@H](O)C[C@@H](O)CC(=O)O[C@H]1C)C[C@H](O)[C@H]2C(=O)O [AMPHOTERICIN B] |  | 0.12 (≈ 0.13 µM) |  | 0.12 (≈ 0.13 µM) |  | 
COc1cc(C)ccc1OCC(=O)OC(C)C | 0.25 (≈ 1.05 µM) | 0.25 (≈ 1.05 µM) |  | 64 (≈ 269 µM) |  | 
Cc1ccc(OCC(=O)OC(C)C)cc1 [ISOPROPYL 4-METHYLPHENOXYACETATE] |  | 128 (≈ 615 µM) | >64 | 8 (≈ 38.4 µM) |  | 
